Measured values as given in article PMC8270270, “Rosin Derivatives as a Platform for the Antiviral Drug Design” (Molecules, 2021).
Read-outs that look alike come from different tables or passages of the source.

Tests used:
[1] = system: A/California/07/09 ((A)H1N1pdm09) viral strain; assay type: cell-based, influenza virus
A549 cell culture = test: Cytotoxicity, colorimetric MTT assay; assay type: cell-based, human; conditions: for Cytotoxicity (in words): A549, MTT assay; for IC50: Homo sapiens, read-out: Determined IC50
Method: The cytotoxicity of compounds (I–V) was assessed on A549 cell culture using a colorimetric MTT assay. A549 cells were incubated for 24 h at 37 °C, 5% CO2 with solutions of the studied compounds at various concentrations. Next, the cell monolayer was washed, and MTT solution was added in a volume of 0.1 mL at a concentration of […]. After 1 h of MTT contact with the cells, the wells were washed, and the formed formazan crystals were dissolved in 0.1 mL of DMSO. The results were recorded at 560 nm on a CLARIOstar Plus plate photometer (BMG LABTECH, Ortenberg, Germany). The IC50 was calculated using GraphPad Prism 6.0.

[2] = system: herpes simplex virus type 1 (HSV-1); parameters: method as in PMID 19892441; conditions: endpoint titration (EPTT); cited from earlier work
Candida tropicalis = test: Disco-diffuse method, fungicidal activity; assay type: cell-based
Method: (§1) The determination of compounds (I, IV, VI–XI) effect concerning microorganisms was carried out using test strains of Escherichia coli, Bacillus subtilis, and Candida tropicalis. They are not only natural inhabitants of natural biocenoses but also a part of human microbiocenosis. Used microorganisms of bacteria were selected as representatives of the Gram-positive and Gram-negative human microbiota. The antibacterial activity of compounds (I, IV, VI–XI) was studied by the disco-diffuse method. The strain culture was transferred sterile from the mown agar into test tubes with 5 mL of nutrient medium to obtain a “night culture” 12–15 h before the experiment. Beef-extract agar (BEA) was used as a nutrient medium for the development of bacterial cells, and Sabouraud’s medium was used for yeast. Bacterial cultures were incubated in a thermostat at 37 °C, and yeast cultures at 32 °C. The melted BEA was poured sterile into Petri dishes (diameter 90 mm) and evenly distributed over the bottom of the dish, covered with a lid, and left on the table until it solidified completely. Next, the dishes with BEA were inoculated with a “lawn” by introducing a strain culture (suspension titer −1–2 × 10^8 CFU/mL) in an amount of 500 µL and evenly distributing it with a sterile spatula. The dishes were left for 60–90 min to dry the culture. Compounds (I, IV, VI–XI) were previously dissolved, and the sequential dilutions were applied to disks. Dimethyl sulfoxide (DMSO) was used as a solvent for the DAA. Water was used as a solvent for their potassium salts. […] This disk was impregnated with a solution of the test compound amounting to 100 μL and incubated in the dark for 24 h at 37 °C (Escherichia coli and Bacillus subtilis) and 48 h at 32 °C (Candida tropicalis). The solution diffuses, forming a concentration gradient of the test compound around the disc. After the incubation period, the inhibition zone or stimulation of microbial growth around the disk was measured in the experimental and control samples. A conclusion was made about the degree (bactericidal) toxicity of compounds. Solvent-treated disks (DMSO) were used as controls. The experiments were performed three times.

Bacillus subtilis = test: Disco-diffuse method, antibacterial activity; assay type: cell-based
Method: as §1

Escherichia coli = test: Disco-diffuse method, antibacterial activity; assay type: cell-based
Method: as §1

[3] = A549, therapeutic scheme, 24 h after stimulation, working concentration
[4] = at the working concentrations used to assess antiviral activity

## CC(C)C1=CC2=CCC3C(C)(C(=O)[O-])CCCC3(C)C2CC1.[K+] (stereo not shown) [II, Potassium abietate]
[1]
  Dose-dependent antiviral effect: led to a decrease in the antiviral effect
[1]; [3]
  Content of viral protein NP inside the cells (ELISA): decrease in the content of the viral protein NP inside the cells
  Viral load in supernatants obtained from cells (NP ELISA), vs control: slight decrease in the viral load
A549 cell culture
  Cytotoxicity (in words): highest cytotoxicity
A549 cell culture; A549, 24 h
  IC50: 240 mg/L
A549 cell culture; [4]
  Decrease in viable cells: 50%

## CC(C)c1cc2c(cc1Br)C1(C)CCCC(C)(C(=O)[O-])C1CC2.[K+] (stereo not shown) [III, Potassium 12-bromodehydroabietate]
[1]; [3]
  Content of viral protein NP inside the cells (ELISA): decrease in the content of the viral protein NP inside the cells
A549 cell culture
  Cytotoxicity (in words): highest cytotoxicity
A549 cell culture; A549, 24 h
  IC50: 140 mg/L
A549 cell culture; [4]
  Decrease in viable cells: 50%

## CC(C)c1ccc2c(c1)CC[C@H]1[C@](C)(COC(=O)c3ccccc3)CCC[C@]21C [dehydroabietinol benzoate]
[2]
  Concentration at which HSV-1 replication was reduced: below 100 mg/mL

## CC(C)c1cc2c(cc1S(=O)(=O)O)C1(C)CCCC(C)(C(=O)O)C1CC2 (stereo not shown) [I, 12-sulfodehydroabietic acid]
[1]; A549, in vitro, working concentration
  Antiviral activity (in words): did not show antiviral activity
A549 cell culture
  Cytotoxicity (in words): weak toxicity
A549 cell culture; A549, 24 h incubation, MTT assay
  IC50: > 518 mg/L
A549 cell culture; [4]
  Cell viability (in words): did not cause a significant decrease in cell viability
Candida tropicalis; 1-50 mg/mL
  Fungicidal activity (in words): did not show either antibacterial activity or fungicidal activity
Candida tropicalis; Candida tropicalis, compound concentration 1 mg/mL, 48 h at 32 °C, read-out: The Zone of Growth Inhibition
  zone of inhibition at 1000 µg/mL: 0 mm
Candida tropicalis; Candida tropicalis, compound concentration 5 mg/mL, 48 h at 32 °C, read-out: The Zone of Growth Inhibition
  zone of inhibition at 5000 µg/mL: 0 mm
Candida tropicalis; Candida tropicalis, compound concentration 10 mg/mL, 48 h at 32 °C, read-out: The Zone of Growth Inhibition
  zone of inhibition at 10000 µg/mL: 0 mm
Candida tropicalis; Candida tropicalis, compound concentration 25 mg/mL, 48 h at 32 °C, read-out: The Zone of Growth Inhibition
  zone of inhibition at 25000 µg/mL: 0 mm
Candida tropicalis; Candida tropicalis, compound concentration 50 mg/mL, 48 h at 32 °C, read-out: The Zone of Growth Inhibition
  zone of inhibition at 50000 µg/mL: 0 mm
Bacillus subtilis; 1-50 mg/mL
  Antibacterial activity (in words): did not show either antibacterial activity or fungicidal activity
Bacillus subtilis; Bacillus subtilis, compound concentration 1 mg/mL, 24 h at 37 °C, read-out: The Zone of Growth Inhibition
  zone of inhibition at 1000 µg/mL: 0 mm
Bacillus subtilis; Bacillus subtilis, compound concentration 5 mg/mL, 24 h at 37 °C, read-out: The Zone of Growth Inhibition
  zone of inhibition at 5000 µg/mL: 0 mm
Bacillus subtilis; Bacillus subtilis, compound concentration 10 mg/mL, 24 h at 37 °C, read-out: The Zone of Growth Inhibition
  zone of inhibition at 10000 µg/mL: 0 mm
Bacillus subtilis; Bacillus subtilis, compound concentration 25 mg/mL, 24 h at 37 °C, read-out: The Zone of Growth Inhibition
  zone of inhibition at 25000 µg/mL: 0 mm
Bacillus subtilis; Bacillus subtilis, compound concentration 50 mg/mL, 24 h at 37 °C, read-out: The Zone of Growth Inhibition
  zone of inhibition at 50000 µg/mL: 0 mm
Escherichia coli; 1-50 mg/mL
  Antibacterial activity (in words): did not show either antibacterial activity or fungicidal activity
Escherichia coli; Escherichia coli, compound concentration 1 mg/mL, 24 h at 37 °C, read-out: The Zone of Growth Inhibition
  zone of inhibition at 1000 µg/mL: 0 mm
Escherichia coli; Escherichia coli, compound concentration 5 mg/mL, 24 h at 37 °C, read-out: The Zone of Growth Inhibition
  zone of inhibition at 5000 µg/mL: 0 mm
Escherichia coli; Escherichia coli, compound concentration 10 mg/mL, 24 h at 37 °C, read-out: The Zone of Growth Inhibition
  zone of inhibition at 10000 µg/mL: 0 mm
Escherichia coli; Escherichia coli, compound concentration 25 mg/mL, 24 h at 37 °C, read-out: The Zone of Growth Inhibition
  zone of inhibition at 25000 µg/mL: 0 mm
Escherichia coli; Escherichia coli, compound concentration 50 mg/mL, 24 h at 37 °C, read-out: The Zone of Growth Inhibition
  zone of inhibition at 50000 µg/mL: 0 mm

## CC(=O)OC[C@]1(C)CCC[C@]2(C)c3ccc(C(C)C)cc3CC[C@@H]12 [dehydroabietinol acetate]
[2]
  Concentration at which HSV-1 replication was reduced: below 100 mg/mL
